Consider 8 molecules from ChEMBL document CHEMBL1141074, “Pharmacophore-guided drug discovery investigations leading to bioactive 5-aminotetrahydropyrazolopyridines. Implications for the binding mode of heterocyclic dopamine D3 receptor agonists” (J Med Chem, 2005).

For assay [1], the target named is T1, D(2) dopamine receptor (Homo sapiens, UniProt P14416). The assay can be described thus: biochemical. The assay is classed as cell-based, ovary.
For assay [2], the target named is T2, D(1A) dopamine receptor (Sus scrofa, UniProt P50130). The assay can be described thus: Binding affinity (low) towards porcine dopamine receptor 1 by using [3H]-SCH- 23390 (0.3 nM) as radioligand.
T2 sequence (P50130 whole entry): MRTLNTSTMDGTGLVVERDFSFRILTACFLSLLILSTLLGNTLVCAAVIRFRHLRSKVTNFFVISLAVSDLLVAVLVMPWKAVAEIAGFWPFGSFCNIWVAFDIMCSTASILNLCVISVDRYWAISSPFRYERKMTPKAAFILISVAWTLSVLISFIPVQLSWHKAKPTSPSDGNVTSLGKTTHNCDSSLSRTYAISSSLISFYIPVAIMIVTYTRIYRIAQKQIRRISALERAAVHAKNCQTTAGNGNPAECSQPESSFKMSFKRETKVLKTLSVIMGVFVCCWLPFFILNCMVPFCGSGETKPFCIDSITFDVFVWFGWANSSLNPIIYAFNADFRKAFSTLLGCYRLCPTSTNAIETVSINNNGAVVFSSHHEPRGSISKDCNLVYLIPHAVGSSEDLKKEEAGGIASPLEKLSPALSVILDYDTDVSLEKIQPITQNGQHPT
For assay [3], the target named is T3, D(3) dopamine receptor (Homo sapiens, UniProt P35462). The assay can be described thus: biochemical.
T3 sequence (P35462 whole entry): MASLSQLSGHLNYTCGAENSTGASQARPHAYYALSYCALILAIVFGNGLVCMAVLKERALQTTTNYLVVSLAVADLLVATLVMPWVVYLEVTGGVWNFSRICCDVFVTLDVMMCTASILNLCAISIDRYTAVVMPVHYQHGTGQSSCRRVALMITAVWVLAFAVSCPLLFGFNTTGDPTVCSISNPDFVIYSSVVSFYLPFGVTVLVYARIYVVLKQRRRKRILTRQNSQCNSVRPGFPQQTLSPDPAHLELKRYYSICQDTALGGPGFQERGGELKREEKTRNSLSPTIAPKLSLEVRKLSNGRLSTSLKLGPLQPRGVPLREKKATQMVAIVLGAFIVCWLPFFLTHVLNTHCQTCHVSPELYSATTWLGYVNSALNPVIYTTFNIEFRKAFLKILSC
Assay [4] addresses T1, D(2) dopamine receptor. The assay can be described thus: High binding affinity towards human dopamine receptor 2 (long) expressed in Chinese hamster ovary cells using [3H]spiperone (0.5 nM) as radioligand. The class given is cell-based.
In assay [5] the target is T3, D(3) dopamine receptor. The assay can be described thus: Binding affinity towards dopamine D3 receptor.
In assay [6] the target is T3, D(3) dopamine receptor. The assay is described as follows: Effective concentration against dopamine D3 receptor.
In assay [7] the target is T1, D(2) dopamine receptor. The assay is described as follows: Low binding affinity towards human dopamine receptor 2 (long) expressed in Chinese hamster ovary cells using [3H]spiperone (0.5 nM) as radioligand. The assay is classed as cell-based.
Assay [8] concerns the target T3, D(3) dopamine receptor. The assay is described as follows: biochemical. The source holds these as a separate data set.
Assay [9] addresses T4, D(4) dopamine receptor (Homo sapiens, UniProt P21917).
T4 sequence (P21917 whole entry): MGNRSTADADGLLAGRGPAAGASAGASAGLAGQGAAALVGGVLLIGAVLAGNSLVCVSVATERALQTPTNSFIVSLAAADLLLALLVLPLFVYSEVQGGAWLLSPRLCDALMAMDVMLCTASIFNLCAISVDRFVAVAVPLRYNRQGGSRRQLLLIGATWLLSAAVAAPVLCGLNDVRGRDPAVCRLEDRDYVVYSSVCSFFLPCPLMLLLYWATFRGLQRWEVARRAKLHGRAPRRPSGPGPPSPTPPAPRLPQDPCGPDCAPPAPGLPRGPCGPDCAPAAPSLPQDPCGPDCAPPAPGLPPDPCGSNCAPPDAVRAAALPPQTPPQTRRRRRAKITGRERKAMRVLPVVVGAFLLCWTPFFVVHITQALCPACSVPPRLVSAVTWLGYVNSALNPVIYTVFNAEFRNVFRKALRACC
The assay is described as follows: biochemical. The class given is cell-based, ovary.

The target in assay [10] is T4, D(4) dopamine receptor. The assay can be described thus: biochemical. The class given is cell-based, ovary. The source holds these as a separate data set.
Assay [11] concerns the target T1, D(2) dopamine receptor. The assay is described as follows: Low binding affinity towards human dopamine receptor 2 (short) expressed in Chinese hamster ovary cells using [3H]spiperone (0.5 nM) as radioligand. The class given is cell-based.
Assay [12] has as its target T1, D(2) dopamine receptor. The assay is described as follows: Binding affinity towards human dopamine receptor 2 (short) expressed in Chinese hamster ovary cells using [3H]spiperone (0.5 nM) as radioligand. The assay is classed as cell-based.
The target in assay [13] is T3, D(3) dopamine receptor. The assay is described as follows: Binding affinity towards human dopamine receptor 3 expressed in Chinese hamster ovary cells using [3H]spiperone (0.5 nM) as radioligand. The assay is classed as cell-based.
Assay [14] deals with T4, D(4) dopamine receptor. The assay is described as follows: Binding affinity towards human dopamine receptor 4.4 expressed in Chinese hamster ovary cells using [3H]spiperone (0.5 nM) as radioligand. The assay is classed as cell-based.
The target of assay [15] is T2, D(1A) dopamine receptor. The assay can be described thus: Binding affinity towards porcine dopamine receptor 1 against radioligand [3H]-SCH- 23390.
The target in assay [16] is T1, D(2) dopamine receptor. The assay is described as follows: Binding affinity towards human dopamine receptor 2 (long) expressed in Chinese hamster ovary cells using [3H]spiperone (0.5 nM) as radioligand. The assay is classed as cell-based.
In assay [17] the target is T2, D(1A) dopamine receptor. The assay can be described thus: Binding affinity (low) towards porcine dopamine receptor 1 against radioligand [3H]-SCH- 23390.

One may read the Ki as a measure of affinity in units of concentration, obtained from inhibition or displacement. A word on the pKi: it is −log10 of the Ki, conventionally taken in molar units. A high value points to a small Ki. In general, EC50 refers to the concentration at which the effect is half-maximal. A lower EC50 goes with a more potent agent.

SMILES strings stand for the structures. Some results are limits rather than exact numbers.

T1 sequence (P14416 whole entry): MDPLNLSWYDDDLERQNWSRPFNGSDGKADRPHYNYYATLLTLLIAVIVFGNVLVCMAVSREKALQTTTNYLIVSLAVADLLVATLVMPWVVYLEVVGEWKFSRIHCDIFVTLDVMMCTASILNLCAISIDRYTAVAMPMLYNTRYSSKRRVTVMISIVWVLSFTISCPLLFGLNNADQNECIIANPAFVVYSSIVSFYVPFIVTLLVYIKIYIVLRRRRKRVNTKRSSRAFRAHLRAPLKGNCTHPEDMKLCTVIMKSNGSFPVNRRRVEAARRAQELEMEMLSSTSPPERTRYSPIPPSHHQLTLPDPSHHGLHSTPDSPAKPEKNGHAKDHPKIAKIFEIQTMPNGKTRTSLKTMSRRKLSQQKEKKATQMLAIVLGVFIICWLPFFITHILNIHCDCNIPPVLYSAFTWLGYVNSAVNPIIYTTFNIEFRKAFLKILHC

`CCCN(CCC)[C@H]1CCn2nccc2C1`: the Ki at D(2) dopamine receptor [1] was 0.25 µM; on D(1A) dopamine receptor [2] it was over 20 µM; at D(3) dopamine receptor [3], 0.004 µM; at D(2) dopamine receptor [4], 0.18 µM; at D(2) dopamine receptor [7], 15 µM; on D(3) dopamine receptor [8], 0.11 µM. Besides, the results for the Ki at D(4) dopamine receptor [9], on D(4) dopamine receptor [10] and on D(2) dopamine receptor [11] were 0.058 µM, 1.7 µM and 10 µM, respectively. The pKi on D(3) dopamine receptor [5] is 8.4. Also, on D(3) dopamine receptor [6], the midpoint of the response, the EC50, lay at 0.0034 µM.
Take `CCCN(CCC)C1CCn2ncc(Cl)c2C1` (stereo not given): the Ki was 0.21 µM at D(2) dopamine receptor [1]; over 20 µM on D(1A) dopamine receptor [2]; 0.0061 µM on D(3) dopamine receptor [3]; 0.12 µM at D(2) dopamine receptor [4]; over 20 µM at D(2) dopamine receptor [7]; 0.23 µM at D(3) dopamine receptor [8]. The Ki at D(4) dopamine receptor [9] was 0.2 µM; on D(4) dopamine receptor [10] it was 6.4 µM; at D(2) dopamine receptor [11], 12 µM. Also, at D(3) dopamine receptor [6], the concentration giving a half-maximal response (EC50) turned out to be 0.0045 µM.
For the molecule `CCCN(CCC)[C@@H]1CCn2nccc2C1`, the Ki at D(2) dopamine receptor [12] was over 20 µM; at D(3) dopamine receptor [13], 2.7 µM; at D(4) dopamine receptor [14], 13 µM; at D(1A) dopamine receptor [15], over 20 µM; at D(2) dopamine receptor [16], over 20 µM.
In the case of `CCCN(CCC)C1CCn2ncc(CO)c2C1` (stereo not given), the Ki is over 20 µM at D(2) dopamine receptor [12]; 4 µM on D(3) dopamine receptor [13]; 16 µM on D(4) dopamine receptor [14]; over 20 µM at D(1A) dopamine receptor [15]; over 20 µM at D(2) dopamine receptor [16].
On to `CCCN(CCC)C1CCn2ncc(C=O)c2C1` (stereo not given), for which the Ki at D(2) dopamine receptor [12] was 4 µM; on D(3) dopamine receptor [13], 12 µM; at D(4) dopamine receptor [14], 14 µM; at D(1A) dopamine receptor [15], over 20 µM; on D(2) dopamine receptor [16] it was 5.9 µM.
The corresponding values for `CCCN(CCC)C1CCn2ncc(C(=O)OC)c2C1` (stereo not given) are over 20 µM, 17 µM, over 20 µM, over 20 µM and over 20 µM.
In the case of `CCCNC1CCn2ncc(C(=O)OC)c2C1` (stereo not given), the Ki is over 100 µM on D(2) dopamine receptor [12]; 12 µM at D(3) dopamine receptor [13]; 90 µM on D(4) dopamine receptor [14]; over 20 µM at D(1A) dopamine receptor [15]; over 100 µM at D(2) dopamine receptor [16].
Take `CCCN(CCC)C1CCn2nccc2C1` (racemic): the Ki on D(2) dopamine receptor [1] was found to be 0.16 µM; at D(3) dopamine receptor [3] it was 0.0067 µM; at D(2) dopamine receptor [4], 0.22 µM; at D(2) dopamine receptor [7], 18 µM; on D(3) dopamine receptor [8], 0.2 µM; on D(4) dopamine receptor [9], 0.058 µM. In addition, the inhibition constant (Ki) at D(4) dopamine receptor [10] is 1.6 µM; on D(2) dopamine receptor [11], 8.5 µM; at D(1A) dopamine receptor [17], over 20 µM.
